Data from patent US20240360157A1, “TYK2 INHIBITORS” (BIOGEN MA INC., priority 2021, published 2024).
Where a name gives a salt, the structure may show the parent alone.

Experiments:
Assay type in all cases: biochemical
[1] = molecular target: human JAK2 catalytic kinase (JH1) domain (Homo sapiens (Human), UniProt O60674); assay: ADP-Glo Kinase Assay, recombinant JAK2 catalytic kinase (JH1) domain; details: recombinant JH1 domain 0.2 nM, 15 μM ATP, JAK3-974 peptide, mean, read-out: JAK2 biochem IC50 (nM) Mean
Method: (§1) Compounds of the disclosure were assessed for their ability to inhibit TYK2, JAK1, JAK2, and JAK3 activity. The inhibitory properties of the compounds of the disclosure described herein can be evidenced by testing in any one of the following protocols.
(§2) The kinase activity of recombinantly generated catalytic kinase (also known as JH1) domain of human JAK1, JAK2, JAK3 and TYK2 were evaluated in a plate-based assay using the ADP-Glo™ Kinase Assay platform. Specifically, 4 nM of recombinant JAK1 kinase domain is used to phosphorylate 50 μM of a JAK3-342 (sequence ALVDGYFRLTT) peptide in the presence of 35 μM ATP. Catalytic activities of recombinant JAK2, JAK3 and TYK2 kinase domain (0.2, 0.3 and 2 nM, respectively) are evaluated by the phosphorylation status of the JAK3-974 (50 μM; sequence LPLDKDYYVVR) peptide with the addition of ATP (15, 4 and 10 μM, respectively). The reactions proceed for 100 minutes and the catalytic activity is quantified by first depleting the unused ATP, converting the hydrolyzed ADP into ATP to generate luminescence in a luciferase reaction; which is the basis of the ADP-Glo platform. Compounds are tested at either 10 μM or 1 μM top concentration, 11 points of 3-fold dilution. The data is normalized and the percent activity versus log concentration of compound is fitted with a 4-parameter logistic model to generate a curve and an IC50 value.

[2] = molecular target: human TYK2 catalytic kinase (JH1) domain (Homo sapiens (Human), UniProt P29597); assay: ADP-Glo Kinase Assay, recombinant TYK2 catalytic kinase (JH1) domain; details: recombinant JH1 domain 2 nM, 10 μM ATP, JAK3-974 peptide, mean, read-out: TYK2 biochem IC50 (nM) Mean
Method: as §1, §2

[3] = molecular target: human JAK3 catalytic kinase (JH1) domain (Homo sapiens (Human), UniProt P52333); assay: ADP-Glo Kinase Assay, recombinant JAK3 catalytic kinase (JH1) domain; details: recombinant JH1 domain 0.3 nM, 4 μM ATP, JAK3-974 peptide, mean, read-out: JAK3 biochem IC50 (nM) Mean
Method: as §1, §2

[4] = molecular target: human JAK1 catalytic kinase (JH1) domain (Homo sapiens (Human), UniProt P23458); assay: ADP-Glo Kinase Assay, recombinant JAK1 catalytic kinase (JH1) domain; details: recombinant JH1 domain 4 nM, 35 μM ATP, JAK3-342 peptide, mean, read-out: JAK1 biochem IC50 (nM) Mean
Method: as §1, §2

Chain of human JAK1 catalytic kinase (JH1) domain (P23458 875-1153): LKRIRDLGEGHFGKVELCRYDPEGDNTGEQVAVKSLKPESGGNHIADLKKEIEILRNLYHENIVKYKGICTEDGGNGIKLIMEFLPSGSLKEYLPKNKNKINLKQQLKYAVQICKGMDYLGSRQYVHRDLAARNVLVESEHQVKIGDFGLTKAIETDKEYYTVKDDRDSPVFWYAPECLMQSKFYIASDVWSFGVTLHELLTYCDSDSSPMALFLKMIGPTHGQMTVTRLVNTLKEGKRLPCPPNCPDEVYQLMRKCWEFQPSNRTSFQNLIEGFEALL
Chain of human JAK2 catalytic kinase (JH1) domain (O60674 849-1124): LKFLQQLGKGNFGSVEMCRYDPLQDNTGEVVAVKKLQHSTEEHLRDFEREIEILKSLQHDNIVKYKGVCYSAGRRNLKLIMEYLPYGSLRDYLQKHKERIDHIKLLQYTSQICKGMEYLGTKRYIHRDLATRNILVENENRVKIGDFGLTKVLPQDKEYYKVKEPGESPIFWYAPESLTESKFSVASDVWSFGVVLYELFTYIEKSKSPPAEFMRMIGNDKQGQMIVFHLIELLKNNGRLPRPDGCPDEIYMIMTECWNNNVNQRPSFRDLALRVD
Chain of human TYK2 catalytic kinase (JH1) domain (P29597 897-1176): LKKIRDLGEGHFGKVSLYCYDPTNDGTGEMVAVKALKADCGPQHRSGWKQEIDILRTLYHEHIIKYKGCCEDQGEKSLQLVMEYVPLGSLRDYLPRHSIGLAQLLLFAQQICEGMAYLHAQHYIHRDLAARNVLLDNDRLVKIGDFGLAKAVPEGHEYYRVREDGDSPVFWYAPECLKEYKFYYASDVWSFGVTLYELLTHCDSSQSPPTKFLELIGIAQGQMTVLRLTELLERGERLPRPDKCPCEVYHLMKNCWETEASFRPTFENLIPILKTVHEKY
Chain of human JAK3 catalytic kinase (JH1) domain (P52333 822-1111): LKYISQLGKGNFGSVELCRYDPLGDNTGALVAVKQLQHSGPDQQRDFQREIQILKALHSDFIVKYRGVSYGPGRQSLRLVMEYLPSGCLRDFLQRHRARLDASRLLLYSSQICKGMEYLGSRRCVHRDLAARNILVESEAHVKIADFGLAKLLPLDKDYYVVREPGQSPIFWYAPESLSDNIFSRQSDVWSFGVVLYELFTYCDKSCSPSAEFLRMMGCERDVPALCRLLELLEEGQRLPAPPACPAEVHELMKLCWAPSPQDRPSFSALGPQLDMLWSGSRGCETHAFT

COc1ccc(-c2cc3c(N4CC5CCC(C4)N5C(=O)[C@@H]4C[C@H]4F)ccnn3c2)nn1 [Example 122, ((1S,2R)-2-fluorocyclopropyl)(3-(6-(6-methoxypyridazin-3-yl)pyrrolo[1,2-b]pyridazin-4-yl)-3,8-diazabicyclo[3.2.1]octan-8-yl)methanone]
IC50 [1]: 63 nM | IC50 [2]: 3.7 nM | IC50 [3]: 940 nM | IC50 [4]: 308 nM

COc1cc(-c2cc3c(N4CC5CCC(C4)N5S(=O)(=O)C4CC4)ccnn3c2)ccn1 [Example 190]
IC50 [1]: 280 nM | IC50 [2]: 64.4 nM | IC50 [3]: 2750 nM | IC50 [4]: 324 nM

COc1cc(-c2cc3c(N4CC5CCC(C4)N5C(=O)[C@@H]4C[C@H]4F)ncnn3c2)ccn1 [Example 89, ((1S,2R)-2-fluorocyclopropyl)(3-(6-(2-methoxypyridin-4-yl)pyrrolo[2,1-f][1,2,4]triazin-4-yl)-3,8-diazabicyclo[3.2.1]octan-8-yl)methanone]
IC50 [1]: 856 nM | IC50 [2]: 28.2 nM | IC50 [3]: 4240 nM | IC50 [4]: 236 nM

Cc1cc(-c2cc3c(N4CC5CCC(C4)N5C(=O)C4CC4)ncnn3c2)on1 [Example 158, Cyclopropyl(3-(6-(3-methylisoxazol-5-yl)pyrrolo[2,1-f][1,2,4]triazin-4-yl)-3,8-diazabicyclo[3.2.1]octan-8-yl)methanone]
IC50 [1]: 10000 nM | IC50 [2]: 656 nM | IC50 [3]: 10000 nM | IC50 [4]: 8060 nM

N#CC1CC(C(=O)N2C3CCC2CN(c2ncnn4cc(-c5cnn(C(F)F)c5)cc24)C3)C1 (stereo not shown) [Example 12, 3-(3-(6-(1-(difluoromethyl)-1H-pyrazol-4-yl)pyrrolo[2,1-f][1,2,4]triazin-4-yl)-3,8-diazabicyclo[3.2.1]octane-8-carbonyl)cyclobutane-1-carbonitrile]
IC50 [1]: 7960 nM | IC50 [2]: 656 nM | IC50 [3]: 8350 nM | IC50 [4]: 2980 nM

O=C(N1C2CCC1CN(c1ncnn3cc(-c4cnn(C(F)F)c4)cc13)C2)C1(C(F)(F)F)CC1 [Example 45, (3-(6-(1-(difluoromethyl)-1H-pyrazol-4-yl)pyrrolo[2,1-f][1,2,4]triazin-4-yl)-3,8-diazabicyclo[3.2.1]octan-8-yl)(1-(trifluoromethyl)cyclopropyl)methanone]
IC50 [1]: 9490 nM | IC50 [2]: 988 nM | IC50 [3]: 6010 nM | IC50 [4]: 7300 nM

Cc1ccc(-c2cc3c(N4CC5CCC(C4)N5C(=O)[C@@H]4C[C@H]4F)ncnc3[nH]2)cn1 [Example 224, ((1S,2R)-2-fluorocyclopropyl)(3-(6-(6-methylpyridin-3-yl)-7H-pyrrolo[2,3-d]pyrimidin-4-yl)-3,8-diazabicyclo[3.2.1]octan-8-yl)methanone]
IC50 [1]: 462 nM | IC50 [2]: 19.2 nM | IC50 [3]: 1100 nM | IC50 [4]: 234 nM

CN(C)c1ccc(-c2cc3c(N4CC5CCC(C4)N5C(=O)[C@@H]4C[C@H]4F)ncnc3[nH]2)cn1 [Example 226, (3-(6-(6-(dimethylamino)pyridin-3-yl)-7H-pyrrolo[2,3-d]pyrimidin-4-yl)-3,8-diazabicyclo[3.2.1]octan-8-yl)((1S,2R)-2-fluorocyclopropyl)methanone]
IC50 [1]: 244 nM | IC50 [2]: 14.9 nM | IC50 [3]: 468 nM | IC50 [4]: 116 nM

Cn1ccc(-c2cc3c(N4CC5CCC(C4)N5C(=O)[C@@H]4C[C@H]4F)ccnn3c2)cc1=O [Example 171]
IC50 [1]: 28 nM | IC50 [2]: 1.5 nM | IC50 [3]: 322 nM | IC50 [4]: 136 nM

O=C([C@@H]1C[C@H]1F)N1C2CCC1CN(c1ccnn3cc(-c4ccc(F)nc4)cc13)C2 [Example 169]
IC50 [1]: 49 nM | IC50 [2]: 1.8 nM | IC50 [3]: 288 nM | IC50 [4]: 47 nM

O=C([C@@H]1CC1(F)F)N1C2CCC1CN(c1ccnn3cc(-c4cnn(C(F)F)c4)cc13)C2 [Example 21, ((S)-2,2-difluorocyclopropyl)(3-(6-(1-(difluoromethyl)-1H-pyrazol-4-yl)pyrrolo[1,2-b]pyridazin-4-yl)-3,8-diazabicyclo[3.2.1]octan-8-yl)methanone]
IC50 [1]: 28 nM | IC50 [2]: 1.4 nM | IC50 [3]: 565 nM | IC50 [4]: 39 nM

Cn1cc(-c2cc3c(N4CC5CCC(C4)N5C(=O)[C@@H]4C[C@H]4F)ccnc3[nH]2)cn1 [Example 238, ((1S,2R)-2-fluorocyclopropyl)(3-(2-(1-methyl-1H-pyrazol-4-yl)-1H-pyrrolo[2,3-b]pyridin-4-yl)-3,8-diazabicyclo[3.2.1]octan-8-yl)methanone]
IC50 [1]: 6 nM | IC50 [2]: 0.1 nM | IC50 [3]: 61 nM | IC50 [4]: 10 nM

Cn1cc(-c2cc3c(N4CC5CCC(C4)N5C(=O)C4CC(F)(F)C4)ncnn3c2)cn1 [Example 70, (3,3-difluorocyclobutyl)(3-(6-(1-methyl-1H-pyrazol-4-yl)pyrrolo[2,1-f][1,2,4]triazin-4-yl)-3,8-diazabicyclo[3.2.1]octan-8-yl)methanone]
IC50 [1]: 6360 nM | IC50 [2]: 382 nM | IC50 [3]: 5090 nM | IC50 [4]: 2430 nM

CC(C)(F)C(=O)N1C2CCC1CN(c1ncnn3cc(-c4cnn(C(F)F)c4)cc13)C2 [Example 32, 1-(3-(6-(1-(difluoromethyl)-1H-pyrazol-4-yl)pyrrolo[2,1-f][1,2,4]triazin-4-yl)-3,8-diazabicyclo[3.2.1]octan-8-yl)-2-fluoro-2-methylpropan-1-one trifluoroacetate]
IC50 [1]: 4400 nM | IC50 [2]: 242 nM | IC50 [3]: 2990 nM | IC50 [4]: 1800 nM

COc1cc(-c2cc3c(N4CC5CCC(C4)N5C(=O)[C@@H]4C[C@H]4F)ccnc3[nH]2)ccn1 [Example 245, ((1S,2R)-2-fluorocyclopropyl)(3-(2-(2-methoxypyridin-4-yl)-1H-pyrrolo[2,3-b]pyridin-4-yl)-3,8-diazabicyclo[3.2.1]octan-8-yl)methanone]
IC50 [1]: 11 nM | IC50 [2]: 0.4 nM | IC50 [3]: 115 nM | IC50 [4]: 7 nM

O=C([C@@H]1CC1(F)F)N1C2CCC1CN(c1ccnn3cc(C4CC4)cc13)C2 [Example 25, (3-(6-cyclopropylpyrrolo[1,2-b]pyridazin-4-yl)-3,8-diazabicyclo[3.2.1]octan-8-yl)((S)-2,2-difluorocyclopropyl)methanone]
IC50 [1]: 10000 nM | IC50 [2]: 662 nM | IC50 [3]: 10000 nM | IC50 [4]: 8060 nM

O=C(C1CC(F)C1)N1C2CCC1CN(c1ncnn3cc(-c4cnn(C(F)F)c4)cc13)C2 (stereo not shown) [Example 48, (3-(6-(1-(difluoromethyl)-1H-pyrazol-4-yl)pyrrolo[2,1-f][1,2,4]triazin-4-yl)-3,8-diazabicyclo[3.2.1]octan-8-yl)(3-fluorocyclobutyl)methanone]
IC50 [1]: 8770 nM | IC50 [2]: 483 nM | IC50 [3]: 9430 nM | IC50 [4]: 3780 nM

O=C([C@H]1CC1(F)F)N1C2CCC1CN(c1ncnn3cc(-c4cnn(C(F)F)c4)cc13)C2 [Example 8, ((R)-2,2-difluorocyclopropyl)(3-(6-(1-(difluoromethyl)-1H-pyrazol-4-yl)pyrrolo[2,1-f][1,2,4]triazin-4-yl)-3,8-diazabicyclo[3.2.1]octan-8-yl)methanone]
IC50 [1]: 3740 nM | IC50 [2]: 200 nM | IC50 [3]: 1690 nM | IC50 [4]: 226 nM

CCOC1CC1C(=O)N1C2CCC1CN(c1ncnn3cc(-c4cnn(C(F)F)c4)cc13)C2 (stereo not shown) [Example 35, (3-(6-(1-(difluoromethyl)-1H-pyrazol-4-yl)pyrrolo[2,1-f][1,2,4]triazin-4-yl)-3,8-diazabicyclo[3.2.1]octan-8-yl)(2-ethoxycyclopropyl)methanone trifluoroacetate]
IC50 [1]: 10000 nM | IC50 [2]: 856 nM | IC50 [3]: 10000 nM | IC50 [4]: 4660 nM

Cc1cc(-c2cc3c(N4CC5CCC(C4)N5C(=O)[C@@H]4C[C@H]4F)ncnn3c2)on1 [Example 166]
IC50 [1]: 1050 nM | IC50 [2]: 56 nM | IC50 [3]: 9260 nM | IC50 [4]: 1160 nM

Cc1cncc(-c2cc3c(N4CC5CCC(C4)N5C(=O)[C@@H]4C[C@H]4F)ccnn3c2)n1 [Example 130, ((1S,2R)-2-fluorocyclopropyl)(3-(6-(6-methylpyrazin-2-yl)pyrrolo[1,2-b]pyridazin-4-yl)-3,8-diazabicyclo[3.2.1]octan-8-yl)methanone]
IC50 [1]: 674 nM | IC50 [2]: 52.8 nM | IC50 [3]: 5420 nM | IC50 [4]: 806 nM

Cc1ccc(-c2cc3c(N4CC5CCC(C4)N5C(=O)[C@@H]4C[C@H]4F)ccnn3c2)cn1 [Example 113, ((1S,2R)-2-fluorocyclopropyl)(3-(6-(6-methylpyridin-3-yl)pyrrolo[1,2-b]pyridazin-4-yl)-3,8-diazabicyclo[3.2.1]octan-8-yl)methanone]
IC50 [1]: 56 nM | IC50 [2]: 3 nM | IC50 [3]: 672 nM | IC50 [4]: 69 nM
